Experimental data taken from patent US20190037899A1, “Intramolecular Trans-Sialidase” (THE INSTITUTE OF FOOD RESEARCH, priority 2016, published 2019).
Values joined by “and” are separate entries in the source; they are usually repeats but may differ in a detail not shown here. Equal values may be shown once. Marks after values point to notes of the source that are not given here.

Legend:
[1] = system: RgNanH; test: Specificity of RgNanH against sialylated oligosaccharides (HPAEC-PAD); type: biochemical, Ruminococcus gnavus ATCC 29149; design: key to Activity, RgNanH: +: Activity was defined as disappearance of the substrate peak and appearance of a lower molecular weight peak which could correspond to the desialylated substrate; details: for Activity, RgNanH: 1 mM substrate, 1 nM enzyme, 37° C., pH 6.5, overnight
[2] = system: AkmNan0625 and AkmNan1835; test: Specificity of AkmNan0625 and AkmNan1835 against sialylated oligosaccharides (HPAEC-PAD); type: biochemical, Akkermansia muciniphila; design: key to Activity, AkmNan0625 and AkmNan1835: +: Activity was defined as disappearance of the substrate peak and appearance of a lower molecular weight peak which could correspond to the desialylated substrate; details: for Activity, AkmNan0625 and AkmNan1835: 1 mM substrate, 1 nM enzyme, 37° C., pH 6.5, overnight
From the text: All chemicals were obtained from Sigma (St. Louis, US) unless otherwise stated. The Akkermansia muciniphila sialidases, termed here AkmNan0625 and AkmNan1835, were obtained by His-Tag overexpression of their genes (Amuc_0625 and Amuc_1835, respectively (van Passel, M. W. et al. The genome of Akkermansia muciniphila, a dedicated intestinal mucin degrader, and its use in exploring intestinal metagenomes. Plos One 6, e16876 (2011)) in E. coli BL21(DE3) and subsequent purification to homogeneity by immobilised metal affinity chromatography (IMAC) as described below. The sialylated oligosaccharides and OC were obtained from Carbosynth (Berks, UK).

[3] = biological target: T1, Ruminococcus gnavus ATCC 29149 sialidase RgNanH (intramolecular trans-sialidase, IT-sialidase), wild type, full length excluding signal sequence residues 1-25, (Mediterraneibacter gnavus, UniProt A7B557); details: 37° C., pH 6.5
T1 sequence (A7B557 26-723): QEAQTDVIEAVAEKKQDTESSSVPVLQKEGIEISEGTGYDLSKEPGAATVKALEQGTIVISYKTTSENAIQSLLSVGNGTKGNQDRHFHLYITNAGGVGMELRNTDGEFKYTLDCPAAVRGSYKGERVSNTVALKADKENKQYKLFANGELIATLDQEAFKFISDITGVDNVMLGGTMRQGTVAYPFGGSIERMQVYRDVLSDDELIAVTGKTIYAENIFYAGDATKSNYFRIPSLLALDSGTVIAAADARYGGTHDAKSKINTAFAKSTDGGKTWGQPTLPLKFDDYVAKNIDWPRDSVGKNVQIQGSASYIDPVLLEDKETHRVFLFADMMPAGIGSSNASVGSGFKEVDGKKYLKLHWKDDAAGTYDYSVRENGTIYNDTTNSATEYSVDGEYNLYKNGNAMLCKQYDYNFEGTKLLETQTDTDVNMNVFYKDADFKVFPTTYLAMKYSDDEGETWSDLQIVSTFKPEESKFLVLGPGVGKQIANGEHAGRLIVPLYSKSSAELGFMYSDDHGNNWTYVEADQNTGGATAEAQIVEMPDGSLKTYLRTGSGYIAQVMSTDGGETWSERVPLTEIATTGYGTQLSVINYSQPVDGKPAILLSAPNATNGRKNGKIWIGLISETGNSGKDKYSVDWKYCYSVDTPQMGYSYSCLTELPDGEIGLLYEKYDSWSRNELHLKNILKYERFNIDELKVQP
Protocol: (§1) Substrate (a) 4MU-Neu5Ac or (b) PNP-Neu5Ac was incubated with RgNanH (0.22 mM and 0.43 nM respectively) at 37° C., pH 6.5 and the release of product measured using a plate-reader. (c) Inhibition of RgNanH (1.00 nM) incubated with 4MU-Neu5Ac (0.51 mM) by zanamivir (●), Neu5Ac2en (▪), Siastatin B (▴) and oseltamivir carboxylate (♦), the rates are normalised to a % of the uninhibited rate. [I] is the inhibitor concentration. (d) 3′SL was incubated with RgNanH (2.25 nM) and the release of product measured by HPAEC-PAD. Experiments were done at least in duplicate (usually triplicate) and the error bars show the standard error of the mean.

[4] = system: RgNanH; test: Kinetic analysis of RgNanH with sialylated substrates; details: 37° C., pH 6.5; for Ki: read-out: Ki (substrate inhibition)
Protocol: For 4MU-Neu5Ac and 3′SL, the rate of hydrolysis without enzyme was not significant so raw data were used. However, for pNP-Neu5Ac the rate of hydrolysis without enzyme was significant so the rate with enzyme was corrected by the subtraction of the rate without enzyme at each concentration of substrate.
Kinetic data were obtained from at least duplicate (usually triplicate) experiments, and the kinetic parameters were calculated by fitting the initial raw data to the Michaelis-Menten equation using a non-linear regression analysis program (Prism 6, GraphPad, San Diego, USA), error bars (standard error of the mean) are shown.

[5] = biological target: T2, RgNanH (Mediterraneibacter gnavus, UniProt A7B557); test: Inhibition of RgNanH activity against 4MU-Neu5Ac by neuraminidase inhibitors; details: for Inhibition of RgNanH (in words): 4MU-Neu5Ac 0.51 mM, 1 nM enzyme, Neu5Ac 0-0.3 mM, Lac 0-1.5 mM
T2 sequence (A7B557 26-723): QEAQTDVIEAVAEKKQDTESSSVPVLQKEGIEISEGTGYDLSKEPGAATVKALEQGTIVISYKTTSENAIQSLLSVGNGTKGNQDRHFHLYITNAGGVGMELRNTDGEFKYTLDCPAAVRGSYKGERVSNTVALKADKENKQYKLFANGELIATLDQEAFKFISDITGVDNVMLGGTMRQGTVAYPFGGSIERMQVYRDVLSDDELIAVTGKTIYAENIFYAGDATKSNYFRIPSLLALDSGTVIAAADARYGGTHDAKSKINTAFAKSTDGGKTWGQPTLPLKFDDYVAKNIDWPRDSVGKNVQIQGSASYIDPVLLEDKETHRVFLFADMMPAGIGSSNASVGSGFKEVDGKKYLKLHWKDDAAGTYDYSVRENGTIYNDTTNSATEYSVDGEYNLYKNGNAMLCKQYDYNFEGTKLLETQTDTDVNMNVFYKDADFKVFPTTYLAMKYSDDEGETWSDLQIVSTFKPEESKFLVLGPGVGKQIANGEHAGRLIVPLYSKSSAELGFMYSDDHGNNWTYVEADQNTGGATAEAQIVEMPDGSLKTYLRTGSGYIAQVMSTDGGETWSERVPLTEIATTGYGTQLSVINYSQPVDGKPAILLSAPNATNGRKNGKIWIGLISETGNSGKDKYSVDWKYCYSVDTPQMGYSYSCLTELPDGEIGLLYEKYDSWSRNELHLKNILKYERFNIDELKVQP

[6] = biological target: T2, RgNanH; details: 1 mg/ml glycoprotein, 37° C., pH 6.5, overnight
Protocol: Extracts (400 μL) were mixed with 200 μL of D2O and 20 μL of a solution of D2O containing 1 mM of TSP (sodium 3-(trimethylsilyl)-propionate-d4). Samples (500 μL) were transferred into a 5-mm NMR tube for spectral acquisition. The ^1H NMR spectra were recorded at 600 MHz on a Bruker Avance spectrometer (Bruker BioSpin GmbH, Rheinstetten, Germany) running Topspin 2.0 software and fitted with a cryoprobe and a 60-slot autosampler. Each ^1H NMR spectrum was acquired with 128 scans, a spectral width of 8,012.8 Hz, an acquisition time of 2.04 s, and a relaxation delay of 2.0 s. The “noesypr1d” presaturation sequence was used to suppress the residual water signal with a low-power selective irradiation at the water frequency during the recycle delay and a mixing time of 100 ms. Spectra were transformed with a 0.3-Hz line broadening, manually phased, baseline corrected, and referenced by setting the TSP methyl signal to 0 ppm.

[7] = substrate: CC(=O)N[C@H]1[C@H]([C@H](O)[C@H](O)CO)O[C@@](Oc2ccc3c(C)cc(=O)oc3c2)(C(=O)O)C[C@@H]1O; test: purified protein, by the assay type; details: other: 37° C., pH 6.5, * estimated value, ± standard error of the mean
Protocol: as §1

[8] = * estimated value, ± standard error of the mean

## Neu5Ac-α-2-3-Gal-β-1-4-GlcNAc [3′-α-sialyl-N-acetyllactosamine]
[1]
  Activity, RgNanH: +
[2]
  Activity, AkmNan0625 and AkmNan1835: +

## Neu5Ac-α-2-6-Gal-β1-4-Glc [6′SL]
[1]
  Enzymatic activity of RgNanH on substrate (in words): no enzymatic activity
[2]
  Activity of AkmNan0625 and AkmNan1835 on substrate (in words): active
  Activity, AkmNan0625 and AkmNan1835: +

## CC(=O)N[C@H]1[C@H]([C@H](O)[C@H](O)CO)O[C@@](Oc2ccc([N+](=O)[O-])cc2)(C(=O)O)C[C@@H]1O [PNP-Neu5Ac, 2-O-(p-Nitrophenyl)-α-D-N-acetylneuraminic acid]
[3]; [8]
  KM: high KM

## CC(=O)N[C@H]1[C@H]([C@H](O)[C@H](O)CO)O[C@@](O[C@H]2[C@@H](O)[C@@H](CO)O[C@@H](O[C@H]3[C@H](O[C@@H]4O[C@@H](C)[C@@H](O)[C@@H](O)[C@@H]4O)[C@@H](NC(C)=O)C(O)O[C@@H]3CO)[C@@H]2O)(C(=O)O)C[C@@H]1O (stereo partly drawn) [3′-sialyl Lewis X, Neu5Ac-α-2-3-Gal-β-1-4-[Fuc-a1-3]-GlcNAc]
[1]
  Activity, RgNanH: +
[2]
  Activity, AkmNan0625 and AkmNan1835: +

## CC(=O)N[C@H]1[C@H]([C@H](O)[C@H](O)CO)O[C@@](Oc2ccc3c(C)cc(=O)oc3c2)(C(=O)O)C[C@@H]1O [4MU-Neu5Ac, 2′-(4-Methylumbelliferyl)-α-D-N-acetylneuraminic acid]
[4]
  Km: 590 µM
  kcat: 6210 min⁻¹
  Ki: 2.37 mM

## Neu5Ac-α-2-6-Gal-β-1-4-GlcNAc [6′-α-sialyl-N-acetyllactosamine]
[2]
  Activity, AkmNan0625 and AkmNan1835: +

## CC(=O)NC1C(O)C=C(C(=O)O)OC1C(O)C(O)CO [Neu5Ac2en, 2-deoxy-2,3-didehydro-D-N-acetylneuraminic acid]
[5]; IC50, Table 2, substrate 4MU-Neu5Ac 0.51 mM, RgNanH 1.00 nM
  IC50: 1.41 mM
[5]; IC50, substrate 4MU-Neu5Ac
  IC50: 1.4 mM

## CC(=O)N[C@H]1[C@H]([C@H](O)[C@H](O)CO)OC(C(=O)O)=C[C@@H]1N=C(N)N [Zanamivir, 4-guanidino-Neu5Ac2en]
[5]; substrate 4MU-Neu5Ac
  IC50: 11.9 mM

## CO[C@@H]1O[C@H](CO)[C@@H](O[C@@H]2O[C@H](CO)[C@H](O)[C@H](O[C@]3(C(=O)O)C[C@H](O)[C@@H](NC(C)=O)[C@H]([C@H](O)[C@H](O)CO)O3)[C@H]2O)[C@H](O[C@@H]2O[C@@H](C)[C@@H](O)[C@@H](O)[C@@H]2O)[C@H]1NC(C)=O [3′ sialyl Lewis X methyl glycoside, Neu5Ac-α-2-3-Gal-β-1-4-[Fuc-a-1-3]-GlcNAc-β-OMe]
[1]
  Activity, RgNanH: +
[2]
  Activity, AkmNan0625 and AkmNan1835: +

## OC[C@H]1O[C@@H](O[C@H]2[C@H](O)[C@@H](O)C(O)O[C@@H]2CO)[C@H](O)[C@@H](O)[C@H]1O (some centres unmarked) [Lactose]
[5]
  Inhibition of RgNanH (in words): not inhibited

## CC(=O)N[C@H]1[C@H]([C@H](O)[C@H](O)CO)OC(OC[C@H]2OC(O)[C@H](O)[C@@H](O)[C@H]2O)(C(=O)O)C[C@@H]1O (stereo partly drawn) [6′ sialylgalactose, Neu5Ac-α-2-6-Gal]
[2]
  Activity, AkmNan0625 and AkmNan1835: +

## asialo-fetuin
[6]
  Activity of RgNanH against glycoprotein (2,7-anhydro-Neu5Ac peaks by 1H NMR): no change

## CC(=O)N[C@H]1[C@H]([C@H](O)[C@H](O)CO)OC(O)(C(=O)O)C[C@@H]1O (some centres unmarked) [Neu5Ac, N-Acetylneuraminic acid]
[5]
  Inhibition of RgNanH (in words): not inhibited

## CC(=O)NC1C(O)CC(OC2C(O)C(O)OC(CO)C2O)(C(=O)O)OC1C(O)C(O)CO (stereo not drawn) [3′ sialylgalactose, Neu5Ac-α-2-3-Gal]
[1]
  Activity, RgNanH: +
[2]
  Activity, AkmNan0625 and AkmNan1835: +

## CC(=O)N[C@H]1NC[C@H](C(=O)O)[C@H](O)[C@@H]1O [Siastatin B]
[5]; Table 2, substrate 4MU-Neu5Ac 0.51 mM, RgNanH 1.00 nM
  IC50: 0.00487 mM

## CC(=O)N[C@H]1[C@H]([C@H](O)[C@H](O)CO)O[C@@](O[C@H]2[C@@H](O)[C@@H](CO)O[C@@H](O[C@H]3[C@H](O[C@@H]4O[C@@H](C)[C@@H](O)[C@@H](O)[C@@H]4O)[C@@H](O)C(O)O[C@@H]3CO)[C@@H]2O)(C(=O)O)C[C@@H]1O (stereo partly drawn) [3′ sialyl-3-fucosyllactose, Neu5Ac-α-2-3-Gal-β1-4-[Fuc-α-1-3]-Glc]
[1]
  Activity, RgNanH: +
[2]
  Activity, AkmNan0625 and AkmNan1835: +

## CC(=O)N[C@H]1[C@H]([C@H](O)[C@H](O)CO)O[C@@](O[C@H]2[C@@H](O)[C@@H](CO)O[C@@H](O[C@H]3[C@H](O)[C@@H](O)C(O)O[C@@H]3CO)[C@@H]2O)(C(=O)O)C[C@@H]1O (stereo partly drawn) [3′SL, Neu5Ac-α-2-3-Gal-β-1-4-Glc]
[1]
  Activity, RgNanH: +
[2]
  Activity of AkmNan0625 and AkmNan1835 on substrate (in words): active
  Activity, AkmNan0625 and AkmNan1835: +
[4]
  KM: below detection limit
  Km: < 100 µM
  Vmax: 0.0566 ± 0.0057 µM/min
  kcat: 25.7 min⁻¹ and 25.70 min⁻¹
  Ki: 0.76 mM
[3]; [8]
  KM: below detection limit
  Km: < 100 µM
[3]; ** calculated using estimated value
  kcat/KM: >>2.57 × 10^2** min^−1 · mM^−1

## CC(=O)NC1C(O)CC(Oc2ccc([N+](=O)[O-])cc2)(C(=O)O)OC1C(O)C(O)CO [PNP-Neu5Ac, 2-O-(p-Nitrophenyl)-α-D-N-acetylneuraminic acid]
[4]
  KM: high
  Km: > 25000 µM
  kcat: <152** min^−1

B1: Ruminococcus gnavus ATCC 29149 sialidase RgNanH (intramolecular trans-sialidase, IT-sialidase), wild type, full length excluding signal sequence residues 1-25, … (protein)
chain: QEAQTDVIEAVAEKKQDTESSSVPVLQKEGIEISEGTGYDLSKEPGAATVKALEQGTIVISYKTTSENAIQSLLSVGNGTKGNQDRHFHLYITNAGGVGMELRNTDGEFKYTLDCPAAVRGSYKGERVSNTVALKADKENKQYKLFANGELIATLDQEAFKFISDITGVDNVMLGGTMRQGTVAYPFGGSIERMQVYRDVLSDDELIAVTGKTIYAENIFYAGDATKSNYFRIPSLLALDSGTVIAAADARYGGTHDAKSKINTAFAKSTDGGKTWGQPTLPLKFDDYVAKNIDWPRDSVGKNVQIQGSASYIDPVLLEDKETHRVFLFADMMPAGIGSSNASVGSGFKEVDGKKYLKLHWKDDAAGTYDYSVRENGTIYNDTTNSATEYSVDGEYNLYKNGNAMLCKQYDYNFEGTKLLETQTDTDVNMNVFYKDADFKVFPTTYLAMKYSDDEGETWSDLQIVSTFKPEESKFLVLGPGVGKQIANGEHAGRLIVPLYSKSSAELGFMYSDDHGNNWTYVEADQNTGGATAEAQIVEMPDGSLKTYLRTGSGYIAQVMSTDGGETWSERVPLTEIATTGYGTQLSVINYSQPVDGKPAILLSAPNATNGRKNGKIWIGLISETGNSGKDKYSVDWKYCYSVDTPQMGYSYSCLTELPDGEIGLLYEKYDSWSRNELHLKNILKYERFNIDELKVQP
[7]
  Km: 590 ± 170 µM
  Vmax: 1.37 µM/min
  kcat: 104 s⁻¹
  kcat/Km: 175000 M⁻¹ s⁻¹
